Assay results from the kinase profiling compilation of Christmann-Franck et al. (2016).

Assays:
Assay in all cases: radiometric filter-binding kinase assay
[1] = target: BRSK1 (human) (UniProt Q8TDC3); conditions: compound 100.0 µM; ATP 20 µM
[2] = target: BRSK2 (human) (UniProt Q8IWQ3); conditions: compound 100.0 µM; ATP 50 µM
[3] = target: CHEK2 (human) (UniProt O96017); conditions: compound 100.0 µM; ATP 20 µM
[4] = target: CSNK2A1 (human) (UniProt P68400); conditions: compound 100.0 µM; ATP 5 µM
[5] = target: DAPK1 (human) (UniProt P53355); conditions: compound 100.0 µM; ATP 5 µM
[6] = target: DYRK3 (human) (UniProt O43781); conditions: compound 100.0 µM; ATP 5 µM
[7] = target: EPHA2 (human) (UniProt P29317); conditions: compound 100.0 µM; ATP 50 µM
[8] = target: EPHA4 (human) (UniProt P54764); conditions: compound 100.0 µM; ATP 50 µM
[9] = target: EPHB1 (human) (UniProt P54762); conditions: compound 100.0 µM; ATP 20 µM
[10] = target: ERBB4 (human) (UniProt Q15303); conditions: compound 100.0 µM; ATP 5 µM
[11] = target: FGFR1 (human) (UniProt P11362); conditions: compound 100.0 µM; ATP 20 µM
[12] = target: GCK (human) (UniProt Q12851); conditions: compound 100.0 µM; ATP 20 µM
[13] = target: HIPK1 (human) (UniProt Q86Z02); conditions: compound 100.0 µM; ATP 20 µM
[14] = target: IKBKE (human) (UniProt Q14164); conditions: compound 100.0 µM; ATP 50 µM
[15] = target: MAP3K9 (human) (UniProt P80192); conditions: compound 100.0 µM; ATP 20 µM
[16] = target: MAPK1 (human) (UniProt P28482); conditions: compound 100.0 µM; ATP 20 µM
[17] = target: MAPK11 (human) (UniProt Q15759); conditions: compound 100.0 µM; ATP 20 µM
[18] = target: MAPK13 (human) (UniProt O15264); conditions: compound 100.0 µM; ATP 5 µM
[19] = target: MAPK14 (human) (UniProt Q16539); conditions: compound 100.0 µM; ATP 50 µM
[20] = target: MAPK8 (human) (UniProt P45983); conditions: compound 100.0 µM; ATP 20 µM
[21] = target: MAPK9 (human) (UniProt P45984); conditions: compound 100.0 µM; ATP 20 µM
[22] = target: MAPKAPK3 (human) (UniProt Q16644); conditions: compound 100.0 µM; ATP 20 µM
[23] = target: MAPKAPK5 (human) (UniProt Q8IW41); conditions: compound 100.0 µM; ATP 20 µM
[24] = target: MYLK (human) (UniProt Q15746); conditions: compound 100.0 µM; ATP 50 µM
[25] = target: NTRK1 (human) (UniProt P04629); conditions: compound 100.0 µM; ATP 20 µM
[26] = tested on: PAK2 (human), Q13177 [T402E]; conditions: compound 100.0 µM; ATP 20 µM
[27] = target: PAK4 (human) (UniProt O96013); conditions: compound 100.0 µM; ATP 5 µM
[28] = target: PAK7 (human) (UniProt Q9P286); conditions: compound 100.0 µM; ATP 20 µM
[29] = target: PIM2 (human) (UniProt Q9P1W9); conditions: compound 100.0 µM; ATP 5 µM
[30] = target: PRKCG (human) (UniProt P05129); conditions: compound 100.0 µM; ATP 20 µM
[31] = target: PRKCZ (human) (UniProt Q05513); conditions: compound 100.0 µM; ATP 5 µM
[32] = target: RPS6KA3 KD1 KD2 (human) (UniProt P51812); conditions: compound 100.0 µM; ATP 50 µM
[33] = target: RPS6KA5 KD1 KD2 (human) (UniProt O75582); conditions: compound 100.0 µM; ATP 20 µM
[34] = target: SRC (human) (UniProt P12931); conditions: compound 100.0 µM; ATP 50 µM
[35] = target: TAOK1 (human) (UniProt Q7L7X3); conditions: compound 100.0 µM; ATP 20 µM
[36] = target: TBK1 (human) (UniProt Q9UHD2); conditions: compound 100.0 µM; ATP 50 µM
TBK1 (human), sequence (Q9UHD2 whole entry, looked up): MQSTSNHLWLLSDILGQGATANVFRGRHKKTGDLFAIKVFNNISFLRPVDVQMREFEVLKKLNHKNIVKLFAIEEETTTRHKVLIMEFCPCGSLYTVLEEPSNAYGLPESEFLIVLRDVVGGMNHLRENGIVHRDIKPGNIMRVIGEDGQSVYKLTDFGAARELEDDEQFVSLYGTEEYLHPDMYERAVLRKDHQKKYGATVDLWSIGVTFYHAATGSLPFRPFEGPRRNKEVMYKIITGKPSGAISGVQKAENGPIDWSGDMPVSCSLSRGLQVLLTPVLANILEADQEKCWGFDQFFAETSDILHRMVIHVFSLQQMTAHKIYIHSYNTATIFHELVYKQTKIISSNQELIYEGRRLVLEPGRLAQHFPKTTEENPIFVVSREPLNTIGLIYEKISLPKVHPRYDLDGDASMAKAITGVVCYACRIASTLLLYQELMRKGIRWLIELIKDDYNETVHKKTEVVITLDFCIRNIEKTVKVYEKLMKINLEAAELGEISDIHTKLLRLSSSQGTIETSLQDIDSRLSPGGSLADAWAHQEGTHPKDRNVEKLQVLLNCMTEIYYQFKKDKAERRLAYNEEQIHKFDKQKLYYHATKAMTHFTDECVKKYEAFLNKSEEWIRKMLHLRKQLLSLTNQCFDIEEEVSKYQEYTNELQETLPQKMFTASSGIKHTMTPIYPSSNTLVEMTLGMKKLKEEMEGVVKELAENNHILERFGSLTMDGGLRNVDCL

TAOK1 (human), sequence (Q7L7X3 whole entry, looked up): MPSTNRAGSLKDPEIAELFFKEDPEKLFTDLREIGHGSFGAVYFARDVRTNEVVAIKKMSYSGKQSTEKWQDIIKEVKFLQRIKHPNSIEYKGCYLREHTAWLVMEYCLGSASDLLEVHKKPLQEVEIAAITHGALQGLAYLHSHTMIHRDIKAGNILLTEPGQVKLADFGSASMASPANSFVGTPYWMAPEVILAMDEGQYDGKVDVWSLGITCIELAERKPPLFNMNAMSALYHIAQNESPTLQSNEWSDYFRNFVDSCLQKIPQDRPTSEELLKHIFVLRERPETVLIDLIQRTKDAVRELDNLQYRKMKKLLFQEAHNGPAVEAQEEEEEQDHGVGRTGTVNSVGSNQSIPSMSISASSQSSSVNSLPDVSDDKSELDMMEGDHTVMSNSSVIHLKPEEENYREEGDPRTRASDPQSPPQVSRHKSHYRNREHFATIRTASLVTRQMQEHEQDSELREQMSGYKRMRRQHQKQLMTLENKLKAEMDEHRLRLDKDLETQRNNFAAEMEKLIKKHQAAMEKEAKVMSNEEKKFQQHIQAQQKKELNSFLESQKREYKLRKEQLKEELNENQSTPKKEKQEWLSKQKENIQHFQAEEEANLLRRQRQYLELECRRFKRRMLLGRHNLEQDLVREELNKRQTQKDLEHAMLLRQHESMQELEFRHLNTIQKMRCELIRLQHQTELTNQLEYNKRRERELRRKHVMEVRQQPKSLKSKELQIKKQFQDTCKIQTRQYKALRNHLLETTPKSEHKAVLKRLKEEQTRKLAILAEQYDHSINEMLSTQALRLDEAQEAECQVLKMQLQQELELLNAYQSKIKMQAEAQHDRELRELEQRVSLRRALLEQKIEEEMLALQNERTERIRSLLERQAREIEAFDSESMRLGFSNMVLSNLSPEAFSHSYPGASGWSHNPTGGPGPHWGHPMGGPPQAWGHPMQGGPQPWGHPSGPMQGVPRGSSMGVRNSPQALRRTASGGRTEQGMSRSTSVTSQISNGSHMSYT
FGFR1 (human), sequence (P11362 whole entry, looked up): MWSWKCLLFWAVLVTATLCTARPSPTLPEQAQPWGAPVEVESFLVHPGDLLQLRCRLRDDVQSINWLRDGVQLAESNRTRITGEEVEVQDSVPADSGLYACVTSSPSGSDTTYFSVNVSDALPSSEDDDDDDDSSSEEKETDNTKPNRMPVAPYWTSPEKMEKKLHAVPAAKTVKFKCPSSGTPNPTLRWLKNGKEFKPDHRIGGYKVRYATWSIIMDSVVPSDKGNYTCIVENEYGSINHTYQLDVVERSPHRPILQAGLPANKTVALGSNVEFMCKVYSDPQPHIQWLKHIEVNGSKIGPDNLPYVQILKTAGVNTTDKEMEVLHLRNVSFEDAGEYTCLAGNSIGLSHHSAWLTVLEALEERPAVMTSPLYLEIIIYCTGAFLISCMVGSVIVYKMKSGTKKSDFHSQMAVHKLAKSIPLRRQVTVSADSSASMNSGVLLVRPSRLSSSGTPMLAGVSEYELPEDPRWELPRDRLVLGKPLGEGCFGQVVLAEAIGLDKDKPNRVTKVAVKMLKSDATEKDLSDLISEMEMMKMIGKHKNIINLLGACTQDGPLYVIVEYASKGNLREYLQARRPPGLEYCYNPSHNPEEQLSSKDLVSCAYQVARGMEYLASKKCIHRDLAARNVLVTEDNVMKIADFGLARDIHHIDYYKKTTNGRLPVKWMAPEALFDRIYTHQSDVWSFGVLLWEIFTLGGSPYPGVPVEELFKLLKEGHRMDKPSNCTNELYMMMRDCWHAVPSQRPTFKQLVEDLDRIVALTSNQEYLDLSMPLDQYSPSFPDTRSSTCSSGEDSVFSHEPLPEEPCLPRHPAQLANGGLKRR
MAPK9 (human), sequence (P45984 whole entry, looked up): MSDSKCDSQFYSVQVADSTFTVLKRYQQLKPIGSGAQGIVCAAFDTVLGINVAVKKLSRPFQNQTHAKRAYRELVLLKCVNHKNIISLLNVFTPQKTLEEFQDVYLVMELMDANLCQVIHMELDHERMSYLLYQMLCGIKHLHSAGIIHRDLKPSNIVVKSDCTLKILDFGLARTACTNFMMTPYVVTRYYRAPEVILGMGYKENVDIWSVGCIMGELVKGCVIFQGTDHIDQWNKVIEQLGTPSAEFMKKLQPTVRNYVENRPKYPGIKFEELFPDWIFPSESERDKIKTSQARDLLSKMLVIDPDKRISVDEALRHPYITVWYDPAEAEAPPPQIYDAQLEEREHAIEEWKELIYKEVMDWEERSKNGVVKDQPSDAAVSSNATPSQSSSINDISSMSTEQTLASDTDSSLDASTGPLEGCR
CSNK2A1 (human), sequence (P68400 whole entry, looked up): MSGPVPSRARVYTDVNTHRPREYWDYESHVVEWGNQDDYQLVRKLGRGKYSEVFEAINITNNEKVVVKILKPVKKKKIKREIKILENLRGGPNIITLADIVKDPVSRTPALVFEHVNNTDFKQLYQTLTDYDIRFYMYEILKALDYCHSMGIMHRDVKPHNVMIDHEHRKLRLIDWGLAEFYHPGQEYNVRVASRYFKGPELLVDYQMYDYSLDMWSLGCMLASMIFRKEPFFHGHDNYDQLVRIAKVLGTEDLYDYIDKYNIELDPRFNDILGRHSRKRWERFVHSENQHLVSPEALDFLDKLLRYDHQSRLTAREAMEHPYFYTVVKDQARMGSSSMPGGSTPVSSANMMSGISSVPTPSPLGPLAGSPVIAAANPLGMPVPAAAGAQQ
MAPKAPK5 (human), sequence (Q8IW41 whole entry, looked up): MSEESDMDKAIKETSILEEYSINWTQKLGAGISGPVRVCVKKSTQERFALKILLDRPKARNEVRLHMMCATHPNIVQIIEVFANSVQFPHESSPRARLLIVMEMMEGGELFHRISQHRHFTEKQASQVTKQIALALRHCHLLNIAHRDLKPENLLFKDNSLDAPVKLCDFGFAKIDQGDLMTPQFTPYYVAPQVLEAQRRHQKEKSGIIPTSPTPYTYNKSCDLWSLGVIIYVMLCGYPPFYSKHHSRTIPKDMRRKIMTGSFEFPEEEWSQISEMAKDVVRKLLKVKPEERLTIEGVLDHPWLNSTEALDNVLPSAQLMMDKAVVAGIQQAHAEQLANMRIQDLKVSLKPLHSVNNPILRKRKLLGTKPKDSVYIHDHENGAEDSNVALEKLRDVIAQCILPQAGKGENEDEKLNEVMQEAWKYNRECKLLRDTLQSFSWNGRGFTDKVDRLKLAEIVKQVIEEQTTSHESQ
MAPK1 (human), sequence (P28482 whole entry, looked up): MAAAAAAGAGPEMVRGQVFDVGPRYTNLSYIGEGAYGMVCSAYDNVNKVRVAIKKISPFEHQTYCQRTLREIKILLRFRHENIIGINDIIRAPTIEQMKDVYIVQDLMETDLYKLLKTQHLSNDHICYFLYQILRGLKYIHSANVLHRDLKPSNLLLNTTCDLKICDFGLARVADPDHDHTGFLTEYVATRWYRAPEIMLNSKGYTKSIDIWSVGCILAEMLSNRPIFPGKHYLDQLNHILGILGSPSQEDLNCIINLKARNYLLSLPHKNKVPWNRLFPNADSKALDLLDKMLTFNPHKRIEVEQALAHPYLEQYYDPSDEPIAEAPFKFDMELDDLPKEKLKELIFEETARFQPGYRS

SMILES | inhibition [1] | inhibition [2] | inhibition [3] | inhibition [4] | inhibition [5] | inhibition [6] | inhibition [7] | inhibition [8] | inhibition [9] | inhibition [10] | inhibition [11] | inhibition [12] | inhibition [13] | inhibition [14] | inhibition [15] | inhibition [16] | inhibition [17] | inhibition [18] | inhibition [19] | inhibition [20] | further results
Nc1nc2cnc(-c3ccccc3)cn2n1 | 27% | 28% | 81% | 55% | 31% | 76% | 28% | 42% | 48% | 83% | 79% | 93% | 28% | 39% | 81% | 47% | 34% | 18% | 27% | 30% | inhibition [21]: 26%; inhibition [22]: 40%; inhibition [23]: 34%; inhibition [24]: 19%; inhibition [25]: 61%; inhibition [26]: 31%; inhibition [27]: 89%; inhibition [28]: 79%; inhibition [29]: 16%; inhibition [30]: 24%; inhibition [31]: 13%; inhibition [32]: 51%; inhibition [33]: 19%; inhibition [34]: 48%; inhibition [35]: 37%; inhibition [36]: 72%
Cc1cccc(C)c1-c1cn2nc(N)nc2cn1 | 14% | 18% | 13% | 17% | 0% | 30% | 11% | 38% | 22% | 28% | 42% | 59% | 16% | 28% | 18% | 14% | 20% | 15% | 35% | 7% | inhibition [21]: 0%; inhibition [22]: 33%; inhibition [23]: 26%; inhibition [24]: 12%; inhibition [25]: 8%; inhibition [26]: 56%; inhibition [27]: 0%; inhibition [28]: 13%; inhibition [29]: 2%; inhibition [30]: 6%; inhibition [31]: 6%; inhibition [32]: 42%; inhibition [33]: 6%; inhibition [34]: 29%; inhibition [35]: 12%; inhibition [36]: 21%
CC(=O)Nc1nc2cnc(-c3c(C)cccc3C)cn2n1 | 0% | 11% | 0% | 0% | 0% | 12% | 0% | 10% | 0% | 9% | 3% | 0% | 0% | 0% | 0% | 0% | 0% | 19% | 0% | 0% | inhibition [21]: 0%; inhibition [22]: 74%; inhibition [23]: 17%; inhibition [24]: 0%; inhibition [25]: 0%; inhibition [26]: 0%; inhibition [27]: 0%; inhibition [28]: 5%; inhibition [29]: 5%; inhibition [30]: 12%; inhibition [31]: 0%; inhibition [32]: 23%; inhibition [33]: 0%; inhibition [34]: 0%; inhibition [35]: 1%; inhibition [36]: 15%
COc1ccc(-c2cc3c(=O)[nH]cnc3s2)cc1OC | 45% | 9% | 38% | 31% | 0% | 36% | 37% | 12% | 4% | 17% | 32% | 0% | 13% | 32% | 4% | 0% | 15% | 0% | 0% | 8% | inhibition [21]: 8%; inhibition [22]: 56%; inhibition [23]: 5%; inhibition [24]: 0%; inhibition [25]: 15%; inhibition [26]: 0%; inhibition [27]: 30%; inhibition [28]: 0%; inhibition [29]: 25%; inhibition [30]: 0%; inhibition [31]: 0%; inhibition [32]: 52%; inhibition [33]: 22%; inhibition [34]: 0%; inhibition [35]: 28%; inhibition [36]: 3%
O=c1cc(-c2ccccc2F)nc2[nH]ccn12 | 44% | 24% | 19% | 20% | 5% | 30% | 9% | 16% | 20% | 48% | 41% | 29% | 30% | 22% | 0% | 8% | 23% | 0% | 21% | 0% | inhibition [21]: 10%; inhibition [22]: 15%; inhibition [23]: 13%; inhibition [24]: 13%; inhibition [25]: 50%; inhibition [26]: 0%; inhibition [27]: 11%; inhibition [28]: 0%; inhibition [29]: 17%; inhibition [30]: 7%; inhibition [31]: 0%; inhibition [32]: 25%; inhibition [33]: 21%; inhibition [34]: 11%; inhibition [35]: 3%; inhibition [36]: 6%
COc1ccc(NC(=S)Nc2cnc3[nH]cnn3c2=O)cn1 | 10% | 34% | 14% | 28% | 5% | 20% | 0% | 22% | 1% | 31% | 25% | 0% | 0% | 0% | 0% | 13% | 0% | 0% | 0% | 2% | inhibition [21]: 5%; inhibition [22]: 37%; inhibition [23]: 3%; inhibition [24]: 0%; inhibition [25]: 0%; inhibition [26]: 17%; inhibition [27]: 15%; inhibition [28]: 0%; inhibition [29]: 0%; inhibition [30]: 0%; inhibition [31]: 0%; inhibition [32]: 47%; inhibition [33]: 28%; inhibition [34]: 38%; inhibition [35]: 0%; inhibition [36]: 7%
